Values quoted from earlier work as cited in patent publication US20060073539A1 (priority 2001, published 2006).

Test system: human hepatocyte and neuroblastoma cells
Details: cited from earlier work

Structure (SMILES)	effect on cell metabolism
CCOP(=S)(OCC)Oc1ccc([N+](=O)[O-])cc1 [parathion]	opposite effects
CCOP(=O)(OCC)Oc1ccc([N+](=O)[O-])cc1 [paraoxon]	opposite effects
